Here are results for 18 molecules from PMC8763382, “2-Sulfonylpyrimidines as Privileged Warheads for the Development of S. aureus Sortase A Inhibitors” (Frontiers in Molecular Biosciences, 2022).

“And” between values parts separate entries of the source, which are not always exact repeats. Equal values may be shown once.

Usually melting point stands for the temperature of the solid-liquid transition. As a reminder, the Ki is the equilibrium dissociation constant of an inhibitor or competing ligand from its target. Low values mean higher affinity, high ones lower affinity.

The target of one series is T1, S. aureus SrtA (Staphylococcus aureus, UniProt Q2FV99).
T1 construct: His tag (inferred from IMAC on a HisTrap column); made in house; host or cells: E. coli BL21 Gold (DE3)
T1 sequence (Q2FV99 60-206): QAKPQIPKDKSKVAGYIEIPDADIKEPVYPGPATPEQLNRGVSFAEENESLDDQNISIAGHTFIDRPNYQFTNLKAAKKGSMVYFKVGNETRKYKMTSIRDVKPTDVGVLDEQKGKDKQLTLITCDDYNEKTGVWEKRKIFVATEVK
Description: fluorometric enzyme assay of SrtA transpeptidation (Abz-LPETG-Dap(Dnp)-OH substrate). The class given is biochemical. Particulars: for k inact: maximum inactivation rate; for k inact / KI (inactivation) / k 2nd: Tris pH 7.50, n. i. = <20% inhibition at 100 µM; for KI (inactivation): read-out: KI, dissociation constant of the reversible enzyme-inhibitor complex; for k 2nd: second-order rate of inhibition; for SrtA inhibition (in words): fluorometric enzyme assay, inhibitor concentration 100 µM. The procedure:
To evaluate the inhibition potency of the parent sulfonylpyrimidine 4, this compound was tested by means of a fluorometric enzyme assay with recombinantly expressed S. aureus SrtA ([Schmohl et al., 2017b]) and Abz-LPETG-Dap (Dnp)-OH as substrate. […] To verify the irreversible mode of inhibition, we determined the maximum inactivation rate k inact, the dissociation constant of the reversible enzyme-inhibitor complex KI, and the second-order rate of inhibition k 2nd. For compound 4, a k inact = 0.00065 s^−1 was found, which is very low compared to other covalent SrtA inhibitors ([Chan et al., 2017]; [Barthels et al., 2020]; [Jaudzems et al., 2020]).
Inhibition assays of S. aureus SrtA transpeptidation reactions were performed as described previously ([Barthels et al., 2020]). Briefly, the recombinantly expressed SrtA (final concentration: 1 µM) was incubated in assay buffer (50 mM Tris, 150 mM NaCl, 5 mM CaCl2, pH 7.50) with 25 µM of the FRET-pair substrate Abz-LPETG-Dap (Dnp)-OH (Genscript, Piscataway, New Jersey) and 0.5 mM tetraglycine (Sigma Aldrich, St. Louis, Missouri). Inhibitors were added from DMSO stocks. Reactions were initiated by addition of SrtA and monitored for 30 min at 30°C in an Infinite M200 Pro plate reader with λex 320 nm/λem 430 nm (Tecan, Männedorf, Switzerland). Three technical replicates were carried out for each inhibitor in black flat-bottom 96-well plates (Greiner bio-one, Kremsmünster, Austria). The enzyme kinetics of irreversible SrtA inactivation were analyzed as described previously ([Barthels et al., 2020]).

Series [1] can be described thus: cysteine reactivity assay (competitive fluorescence assay with probe 8). The note with it: phosphate buffer (1×PBS) pH 7.5. The class given is physicochemical. The text has this:
In order to study the kinetics of sulfonylpyrimidines reacting with free cysteine in solution, a strategy for a competitive fluorescence-based assay was adapted from previous works ([Epps and Taylor, 2001]; [Sameshima et al., 2017]). […] The reaction of probe 8 with cysteine liberates 4-methylumbelliferone as a fluorometrically detectable product (Figure 7A), and thus, the fluorescence increase can be described by the second-order rate constant k probe (Equation 1).
Upon the addition of competitive and irreversible cysteine modifiers such as sulfonylpyrimidines, the fluorescence increase of the probe reaction was hyperbolically attenuated (Figure 7B). According to the conceptual deduction described previously ([Epps and Taylor, 2001]; [Sameshima et al., 2017]), the experimental fluorescence curves can be analyzed by nonlinear regression as first-order reaction progress curves (Equation 2). The parameter k obs describes the curvature corresponding to the sum of the competing kinetics (Equation 3). Under the assumptions that 1) the competitive reaction between sulfonylpyrimidines vs. probe with cysteine is started by simultaneous addition, and 2) sulfonylpyrimidines are added at a much higher concentration than cysteine (5 µM) and the probe (5 µM), the k obs values depend substantially on the k chem value. The compound-specific second-order inactivation parameter k chem can be determined by linear regression from the k obs values of the dilution series (Equation 4). d[FL]/dt=kprobe[Cys][probe] (1) FL=[Cys]total⋅kprobe [probe]/kprobe [probe] + kchem [sulfonylpyrimidine](1−e^−kobs⋅t) (2) kobs=kchem [sulfonylpyrimidine]+kprobe [probe] (3) kchem=kobs/[sulfonylpyrimidine] (4)
Kinetic characterization of the reaction between sulfonylpyrimidines and cysteine was performed in degassed phosphate buffer (1×PBS, pH 7.5) or individual cases in bicarbonate buffer (20 mM NaHCO3, 100 mM NaCl, pH 7.5). Three technical replicates were carried out for each sulfonylpyrimidine in black flat-bottom 96-well plates. For this purpose, 50 µL buffered solution (including 5% (v/v) DMSO) of the respective sulfonylpyrimidine derivative (final: 250–3 µM) and the cysteine reactive probe 8 (final: 5 µM) were premixed. Reactions were initiated by the addition of 50 µL cysteine (final: 5 µM), dissolved in the respective buffer, and monitored for 30 min at 30°C in an Infinite M200 Pro plate reader with λex 380 nm/λem 460 nm. To calculate k obs and k chem values, fluorescence curves were fitted using the same non-linear regression as for in vitro inhibition of SrtA ([Barthels et al., 2020]).

`CS(=O)(=O)c1ncc(Cl)c(C(=O)Nc2cccc(Cc3ccccc3)c2)n1` [Compound 6d]: the melting point was found to be 148 °C. On S. aureus SrtA, the k inact worked out at 0.00618 ± 0.00025 s⁻¹, the KI (inactivation) was determined as 60.3 ± 6.4 µM and the “k 2nd” value is given as 6,181 ± 489 M^−1min^−1.

Consider `COc1cccc(NC(=O)c2nc(S(C)(=O)=O)ncc2Cl)c1` [Compound 6e], for which, at S. aureus SrtA, the Ki was greater than 100 µM; the “k 2nd” value is 882 M⁻¹ min⁻¹ and 882 ± 43 M⁻¹ min⁻¹.

Consider `CS(=O)(=O)c1ncc(Cl)c(C(=O)Nc2cccc(C(=O)Nc3ccccc3)c2)n1` [Compound 6m], for which the melting point was found to be 237 °C. Besides, at S. aureus SrtA, the “SrtA inhibition (in words)” value was “inhibition was completely abolished”, the k inact result is reported as “n. i” and the “k 2nd” value is “n. i”.

In the case of `CS(=O)(=O)c1ncc(Cl)c(C(=O)Nc2cccc(-c3ccccc3)c2)n1` [Compound 6f], the melting point is 164 °C. For the same molecule, at S. aureus SrtA, the Ki was greater than 100 µM; the “k 2nd” value is 588 M⁻¹ min⁻¹ and 588 ± 48 M⁻¹ min⁻¹.

In turn, `CS(=O)(=O)c1ncc(Cl)c(C(=O)Nc2ccc(-c3ccc(C#N)cc3)cc2)n1` [Compound 5d] came in with a melting point of 267 °C. Moreover, at S. aureus SrtA, the k inact entry is listed as “n. i” and the “k 2nd” value is “n. i”.

The molecule `CS(=O)(=O)c1ncc(Cl)c(C(=O)Nc2ccc(Oc3ccccc3)cc2)n1` [Compound 6h] displayed a melting point of 195 °C. On S. aureus SrtA, the “SrtA inhibition (in words)” value is on record as “complete abolition of inhibition”, the k inact result is “n. i” and the “k 2nd” value is reported as “n. i”.

`Cc1ccc(-c2csc(NC(=O)c3nc(S(C)(=O)=O)ncc3Cl)n2)cc1` [Compound 5g] displayed a melting point of 280 °C. For the same molecule, at S. aureus SrtA, the k inact entry is “n. i” and the “k 2nd” value is listed as “n. i”.

`CS(=O)(=O)c1ncc(Cl)c(C(=O)NCC(=O)Nc2cccc(Oc3ccccc3)c2)n1` [Compound 5b]: the melting point came out at 91 °C. In addition, on S. aureus SrtA, the k inact stood at 0.00082 ± 0.00004 s⁻¹; the KI (inactivation) came out at 42.4 ± 4.62 µM; the “k 2nd” value was 1,175 M^−1min^−1 and 1,175 ± 67 M^−1min^−1.

With `CS(=O)(=O)c1ncc(Cl)c(C(=O)NCCSc2ccccc2)n1` [Compound 6n], on S. aureus SrtA, the “SrtA inhibition (in words)” value is “complete loss of inhibition”, the k inact result is recorded as “n. i” and the “k 2nd” value is “n. i”.

`CS(=O)(=O)c1ncc(Cl)c(C(=O)Nc2ccc3[nH]ncc3c2)n1` [Compound 5f]: the melting point stood at 231 °C. For the same molecule, at S. aureus SrtA, the k inact result was “n. i” and the “k 2nd” value is given as “n. i”.

Molecule `CS(=O)(=O)c1ncc(Cl)c(C(=O)Nc2cccc(OCc3ccccc3)c2)n1` [Compound 6k] showed a melting point of 154 °C. Moreover, on S. aureus SrtA, the “SrtA inhibition (in words)” value was “inhibition was completely abolished”, the k inact entry is “n. i” and the “k 2nd” value was “n. i”.

In turn, `CS(=O)(=O)c1ncc(Cl)c(C(=O)Nc2cccc(Sc3ccccc3)c2)n1` [Compound 6b] returned a melting point of 135 °C. Further, at S. aureus SrtA, the k inact came to 0.00578 ± 0.00033 s⁻¹, the KI (inactivation) was 47.5 ± 4.62 µM and the “k 2nd” value was 7,305 ± 294 M^−1min^−1.

As to `CS(=O)(=O)c1ncc(Cl)c(C(=O)Nc2ccc3c(c2)oc2ccccc23)n1` [Compound 6l], the melting point turned out to be 250 °C. Besides, on S. aureus SrtA, the “SrtA inhibition (in words)” value is “complete loss of inhibition”, the k inact result is reported as “n. i” and the “k 2nd” value is “n. i”.

Molecule `CCC(CC)NC(=O)c1nc(S(C)(=O)=O)ncc1Cl` [Compound 5i] registered a melting point of 146 °C. At S. aureus SrtA, the k inact result is “n. i” and the “k 2nd” value is listed as “n. i”.

Turning to `CS(=O)(=O)c1ncc(Cl)c(C(=O)N(Cc2ccccc2)Cc2ccccc2)n1` [Compound 5k], the melting point worked out at 68 °C. Moreover, at S. aureus SrtA, the k inact entry was “n. i” and the “k 2nd” value is “n. i”.

As to `Cc1cnc(S(C)(=O)=O)nc1C(=O)Nc1cccc(Oc2ccccc2)c1` [Compound 7d], the melting point is 164 °C. This molecule registered a Cysteine k chem in series [1] of 0.102 ± 0.0285 M⁻¹ s⁻¹. Further, on S. aureus SrtA (SrtA k 2nd over cysteine k chem), the “S. I. (k 2nd/k chem)” value is 196. Also, the “k 2nd” value on S. aureus SrtA is reported as 1,204 ± 139 M^−1min^−1.

`CS(=O)(=O)c1ncc(Cl)c(C(=O)Nc2cccc(OC3CCCCC3)c2)n1` [Compound 6c] registered a melting point of 144 °C. At S. aureus SrtA, the k inact was 0.00864 ± 0.00092 s⁻¹; the KI (inactivation) turned out to be 78.8 ± 9.92 µM; the “k 2nd” value is 6,593 M^−1min^−1 and 6,593 ± 243 M^−1min^−1.

`CS(=O)(=O)c1ncc(Cl)c(C(=O)N2CCc3ccccc3C2)n1` [Compound 5h] displayed a melting point of 218 °C. Moreover, at S. aureus SrtA, the k inact entry is “n. i” and the “k 2nd” value is given as “n. i”.
